Structures can show the parent of a compound that is named as a salt.
System: histamine-induced conjunctivitis
Experiment: Effect on rat histamine-induced conjunctivitis
Assay type: in vivo, Male Wistar rats
Conditions: 0.5 w/v % cetirizine hydrochloride; 3 μl per eye 40 and 20 minutes before histamine
Method: Male Wistar rats of about 100 g in weight were injected subconjunctivally each with 50 μl of 0.1 w/v % histamine at the upper eyelid. Each of the following test ophthalmic compositions in solution form was instilled into both eyes of the rats in the corresponding group at a dose of 3 μl for each eye 40 and 20 minutes before the histamine injection. The rats were sacrificed one hour after the histamine injection. The palpebral conjunctival edema weight was measured, and the edema inhibition rate was calculated using the edema weight of the physiological saline group as the maximal response.

O=C(O)COCCN1CCN(C(c2ccccc2)c2ccc(Cl)cc2)CC1 (stereo not shown) [cetirizine hydrochloride]
edema inhibition rate: about 88.8%

Reference: patent US5419898A, “Antiallergic composition for ophthalmic or nasal use” (priority 1992, dated 1995)
